Data reported in patent US9637473B2, “Acrylamide derivatives as antimalarial agents” (priority 2013, dated 2017).
Where a name gives a salt, the structure may show the parent alone.

These compounds were tested on P. Falciparum NF54 (assay: Plasmodium falciparum in vitro assay ([3H]-hypoxanthine incorporation)). Conditions: Plasmodium falciparum, Erythrocyte, P. Falciparum NF54, erythrocytic stages in human red blood cells, 50% human serum.
Assay type: cell-based
Procedure, shortened: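 This in vitro antimalarial assay used P. falciparum erythrocytic stages cultured in human erythrocytes and measured [3H]-hypoxanthine incorporation. Radioactivity on the dried filters, placed in plastic foil with 10 mL scintillation fluid, was counted in a Betaplate liquid scintillation counter. Sigmoidal inhibition curves built in Microsoft Excel gave the IC50.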

Row | Compound | IC50 [nM]
1 | Cc1cc(Nc2ccc(CN(C(=O)/C=C/c3ccc(C(F)(F)F)cc3)C3CCN(C4CCCC4)CC3)cc2)ccn1 [Example 95, (E)-N-(1-Cyclopentyl-piperidin-4-yl)-N-[4-(2-methyl-pyridin-4-ylamino)-benzyl]-3-(4-trifluoromethyl-phenyl)-acrylamide] | 13
2 | CN(c1ccc(CN(C(=O)/C=C/c2ccc(C(F)(F)F)cc2)C2CCN(C3CCCC3)CC2)cc1)c1cccnc1 [Example 96, (E)-N-(1-Cyclopentyl-piperidin-4-yl)-N-[4-(methyl-pyridin-3-yl-amino)-benzyl]-3-(4-trifluoromethyl-phenyl)-acrylamide] | 351
3 | O=C(/C=C/c1ccc(C(F)(F)F)cc1)N(Cc1ccc(Nc2ccnc3cc(Cl)ccc23)cc1)C1CCN(C2CCCC2)CC1 [Example 97, (E)-N-[4-(7-Chloro-quinolin-4-ylamino)-benzyl]-N-(1-cyclopentyl-piperidin-4-yl)-3-(4-trifluoromethyl-phenyl)-acrylamide] | 120
4 | Cc1ccc(Nc2ccc(CN(C(=O)/C=C/c3ccc(C(F)(F)F)cc3)C3CCN(C4CCCC4)CC3)cc2)nc1 [Example 98, (E)-N-(1-Cyclopentyl-piperidin-4-yl)-N-[4-(5-methyl-pyridin-2-ylamino)-benzyl]-3-(4-trifluoromethyl-phenyl)-acrylamide] | 370
5 | COc1ccc2nc(C)cc(Nc3ccc(CN(C(=O)/C=C/c4ccc(C(F)(F)F)cc4)C4CCN(C5CCCC5)CC4)cc3)c2c1 [Example 100, (E)-N-(1-Cyclopentyl-piperidin-4-yl)-N-[4-(6-methoxy-2-methyl-quinolin-4-ylamino)-benzyl]-3-(4-trifluoromethyl-phenyl)-acrylamide] | 21
6 | CN(c1ccncc1)c1ccc(CN(C(=O)/C=C/c2ccc(C(F)(F)F)cc2)C2CN(C3CCCC3)C2)cc1 [Example 102, (E)-N-(1-Cyclopentyl-azetidin-3-yl)-N-[4-(methyl-pyridin-4-yl-amino)-benzyl]-3-(4-trifluoromethyl-phenyl)-acrylamide] | 81
7 | O=C(/C=C/c1ccc(C(F)(F)F)cc1)N(Cc1ccc(Nc2ccncc2)nc1)C1CCN(C2CCCC2)CC1 [Example 103, (E)-N-(1-Cyclopentyl-piperidin-4-yl)-N-[6-(pyridin-4-ylamino)-pyridin-3-ylmethyl]-3-(4-trifluoromethyl-phenyl)-acrylamide] | 44
8 | CN(c1ccncc1)c1ccc(CN(C(=O)/C=C/c2ccc(C(F)(F)F)cc2)C2CCN(C3CCCC3)CC2)cn1 [Example 104, (E)-N-(1-Cyclopentyl-piperidin-4-yl)-N-[6-(methyl-pyridin-4-yl-amino)-pyridin-3-ylmethyl]-3-(4-trifluoromethyl-phenyl)-acrylamide] | 60
9 | CN1CCC(Nc2ccc(CN(C(=O)/C=C/c3ccc(C(F)(F)F)cc3)C3CCN(C4CCCC4)CC3)cn2)CC1 [Example 105, (E)-N-(1-Cyclopentyl-piperidin-4-yl)-N-[6-(1-methyl-piperidin-4-ylamino)-pyridin-3-ylmethyl]-3-(4-trifluoromethyl-phenyl)-acrylamide] | 152
10 | CN1CCC(N(C)c2ccc(CN(C(=O)/C=C/c3ccc(C(F)(F)F)cc3)C3CCN(C4CCCC4)CC3)cn2)CC1 [Example 106, (E)-N-(1-Cyclopentyl-piperidin-4-yl)-N-{6-[methyl-(1-methyl-piperidin-4-yl)-amino]-pyridin-3-ylmethyl}-3-(4-trifluoromethyl-phenyl)-acrylamide] | 348
11 | O=C(/C=C/c1ccc(C(F)(F)F)cc1)N(Cc1ccc(Nc2ccncn2)nc1)C1CCN(C2CCCC2)CC1 [Example 107, (E)-N-(1-Cyclopentyl-piperidin-4-yl)-N-[6-(pyrimidin-4-ylamino)-pyridin-3-ylmethyl]-3-(4-trifluoromethyl-phenyl)-acrylamide] | 420
12 | Cc1nccc(Nc2ccc(CN(C(=O)/C=C/c3ccc(C(F)(F)F)cc3)C3CCN(C4CCCC4)CC3)cn2)n1 [Example 108, (E)-N-(1-Cyclopentyl-piperidin-4-yl)-N-[6-(2-methyl-pyrimidin-4-ylamino)-pyridin-3-ylmethyl]-3-(4-trifluoromethyl-phenyl)-acrylamide] | 430
13 | Cc1cc(Nc2ccc(CN(C(=O)/C=C/c3ccc(C(F)(F)F)cc3)C3CCN(C4CCCC4)CC3)cn2)ncn1 [Example 109, (E)-N-(1-Cyclopentyl-piperidin-4-yl)-N-[6-(6-methyl-pyrimidin-4-ylamino)-pyridin-3-ylmethyl]-3-(4-trifluoromethyl-phenyl)-acrylamide] | 393
14 | CN1CCC(N2CCC(N(Cc3ccc(Nc4ccncc4)nc3)C(=O)/C=C/c3ccc(C(F)(F)F)cc3)CC2)CC1 [Example 110, (E)-N-(1′-Methyl-[1,4′]bipiperidinyl-4-yl)-N-[6-(pyridin-4-ylamino)-pyridin-3-ylmethyl]-3-(4-trifluoromethyl-phenyl)-acrylamide] | 171
15 | Cc1cc(Nc2ccc(CN(C(=O)/C=C/c3ccc(C(F)(F)F)cc3)C3CCN(C4CCN(C)CC4)CC3)cn2)ccn1 [Example 111, (E)-N-(1′-Methyl-[1,4′]bipiperidinyl-4-yl)-N-[6-(2-methyl-pyridin-4-ylamino)-pyridin-3-ylmethyl]-3-(4-trifluoromethyl-phenyl)-acrylamide] | 165
16 | CN1CCC(N2CCC(N(Cc3ccc(N(C)c4ccncc4)nc3)C(=O)/C=C/c3ccc(C(F)(F)F)cc3)CC2)CC1 [Example 112, (E)-N-(1′-Methyl-[1,4′]bipiperidinyl-4-yl)-N-[6-(methyl-pyridin-4-yl-amino)-pyridin-3-ylmethyl]-3-(4-trifluoromethyl-phenyl)-acrylamide] | 39
17 | CN(c1ccncc1)c1ccc(CN(C(=O)/C=C/c2ccc(C(F)(F)F)cc2)[C@@H]2CCN(C3CCCC3)C2)cc1 [Example 113, (E)-N-((R)-1-Cyclopentyl-pyrrolidin-3-yl)-N-[4-(methyl-pyridin-4-yl-amino)-benzyl]-3-(4-trifluoromethyl-phenyl)-acrylamide] | 78
18 | CN(c1ccncc1)c1ccc(CN(C(=O)/C=C/c2ccc(C(F)(F)F)cc2)[C@H]2CCN(C3CCCC3)C2)cc1 [Example 114, (E)-N-((S)-1-Cyclopentyl-pyrrolidin-3-yl)-N-[4-(methyl-pyridin-4-yl-amino)-benzyl]-3-(4-trifluoromethyl-phenyl)-acrylamide] | 86
19 | CN1CCC(N2CCC(N(Cc3ccc(Nc4ccncc4)cc3)C(=O)/C=C/c3ccc(C(F)(F)F)cc3)CC2)CC1 [Example 115, (E)-N-(1′-Methyl-[1,4′]bipiperidinyl-4-yl)-N-[4-(pyridin-4-ylamino)-benzyl]-3-(4-trifluoromethyl-phenyl)-acrylamide] | 82
20 | Cc1cc(Nc2ccc(CN(C(=O)/C=C/c3ccc(C(F)(F)F)cc3)C3CCN(C4CCN(C)CC4)CC3)cc2)ccn1 [Example 116, (E)-N-(1′-Methyl-[1,4′]bipiperidinyl-4-yl)-N-[4-(2-methyl-pyridin-4-ylamino)-benzyl]-3-(4-trifluoromethyl-phenyl)-acrylamide] | 70
21 | Cc1cc(Nc2ccc(CN(C(=O)/C=C/c3ccc(Cl)cc3)C3CCN(C4CCN(C)CC4)CC3)cc2)ccn1 [Example 117, (E)-3-(4-Chloro-phenyl)-N-(1′-methyl-[1,4′]bipiperidinyl-4-yl)-N-[4-(2-methyl-pyridin-4-ylamino)-benzyl]-acrylamide] | 305
22 | CN1CCC(N2CCC(N(Cc3ccc(Nc4ccncc4)cc3)C(=O)/C=C/c3ccc(OC(F)(F)F)cc3)CC2)CC1 [Example 118, (E)-N-(1′-Methyl-[1,4′]bipiperidinyl-4-yl)-N-[4-(pyridin-4-ylamino)-benzyl]-3-(4-trifluoromethoxy-phenyl)-acrylamide] | 83
23 | Cc1cc(Nc2ccc(CN(C(=O)/C=C/c3ccc(OC(F)(F)F)cc3)C3CCN(C4CCN(C)CC4)CC3)cc2)ccn1 [Example 119, (E)-N-(1′-Methyl-[1,4′]bipiperidinyl-4-yl)-N-[4-(2-methyl-pyridin-4-ylamino)-benzyl]-3-(4-trifluoromethoxy-phenyl)-acrylamide] | 46
24 | Cc1cc(Nc2ccc(CN(C(=O)/C=C/c3ccc(C(F)(F)F)cc3)[C@H]3CCCN(C(C)C)C3)cn2)ccn1 [Example 120, (E)-N-((S)-1-Isopropyl-piperidin-3-yl)-N-[6-(2-methyl-pyridin-4-ylamino)-pyridin-3-ylmethyl]-3-(4-trifluoromethyl-phenyl)-acrylamide] | 90
25 | Cc1cc(N(C)c2cccc(CN(C(=O)/C=C/c3ccc(C(F)(F)F)cc3)C3CCN(C(C)C)CC3)c2)ccn1 [Example 121, (E)-N-(1-Isopropyl-piperidin-4-yl)-N-{3-[methyl-(2-methyl-pyridin-4-yl)-amino]-benzyl}-3-(4-trifluoromethyl-phenyl)-acrylamide formate] | 76
26 | Cc1cc(Nc2cccc(CN(C(=O)/C=C/c3ccc(C(F)(F)F)cc3)C3CCN(C(C)C)CC3)c2)ccn1 [Example 122, (E)-N-(1-Isopropyl-piperidin-4-yl)-N-[3-(2-methyl-pyridin-4-ylamino)-benzyl]-3-(4-trifluoromethyl-phenyl)-acrylamide formate] | 43
27 | Cc1cnccc1Nc1cccc(CN(C(=O)/C=C/c2ccc(C(F)(F)F)cc2)C2CCN(C(C)C)CC2)c1 [Example 123, (E)-N-(1-Isopropyl-piperidin-4-yl)-N-[3-(3-methyl-pyridin-4-ylamino)-benzyl]-3-(4-trifluoromethyl-phenyl)-acrylamide formate] | 21
28 | CC(C)N1CCC(N(Cc2cccc(Nc3ccncc3F)c2)C(=O)/C=C/c2ccc(C(F)(F)F)cc2)CC1 [Example 124, (E)-N-[3-(3-Fluoro-pyridin-4-ylamino)-benzyl]-N-(1-isopropyl-piperidin-4-yl)-3-(4-trifluoromethyl-phenyl)-acrylamide formate] | 303
29 | CC(C)N1CCC(N(Cc2cccc(Nc3ccncn3)c2)C(=O)/C=C/c2ccc(C(F)(F)F)cc2)CC1 [Example 125, (E)-N-(1-Isopropyl-piperidin-4-yl)-N-[3-(pyrimidin-4-ylamino)-benzyl]-3-(4-trifluoromethyl-phenyl)-acrylamide formate] | 340
